Assay results taken from patent publication US20160038505A1, “METHODS AND COMPOSITIONS FOR TREATING IMPULSE CONTROL DISORDER, ANXIETY-RELATED DISORDERS, VIOLENCE AND/OR ANGER, OR REGULATING FOOD INTAKE” (priority 2014, published 2016).

Assays:
[1] = Pharmacokinetics of noribogaine in healthy male volunteers (plasma, urine, LCMSMS); conditions: for AUC0-216 / AUC0-∞ / Cmax / Tmax / t1/2: mean (SD), n = 6
Sprague-Dawley rat = assay: Single dose toxicity in rats; assay type: in vivo
Procedure: The objective of this study was to determine the toxicity and toxicokinetic profile of noribogaine HCl following a single oral (gavage) administration in the Sprague-Dawley rat. A single dose of 100, 300 and 800 mg/kg (achieved with doses of 400 mg/kg 3 h+/−30 min apart because of the limitations of maximum dose formulation concentration). Five male rats/group were used. […] Hypoactivity, vocalization, chewing movements, changes in respiration/posture, salivation, stimuli sensitivity, tremors, twitches and penile erection occurred prior to death. […] The NOAEL was determined to be 100 mg/kg.

[2] = Human pharmacokinetic study, single oral tablet, fasting healthy volunteers (serum); assay type: in vivo; conditions: 3 mg, 10 mg, 30 mg or 60 mg single oral tablet
Procedure: In double blind studies, fasting healthy volunteers (6 per cohort) were treated once orally with a tablet of noribogaine HCl. In escalating cohorts, the volunteers received 3 mg, 10 mg, 30 mg or 60 mg noribogaine.

dogs = assay: Fourteen day repeat dose toxicity in dogs; assay type: in vivo, dog
Procedure: The objective of this study was to determine the toxicity profile of noribogaine HCl given following oral (gavage) administration to dogs for 14 days according to the following Table 3 below:
Noribogaine HCl was administered to groups of 4 male and 4 female dogs by single oral gavage daily for 14 days at doses of 0, 0.5, 1.0 and 5.0 mg/kg/day. An additional group of 4 male and 4 female dogs received either the vehicle control or 5.0 mg/kg/day for 14 days and were held for an additional 28 days after cessation of dosing to assess recovery from any potential drug-induced changes. The study was conducted under GLP guidelines and included comprehensive examinations of clinical signs, body weight, clinical pathology parameters, ophthalmologic examinations, ECG recordings and analyses of plasma for bioanalytical measurement of drug levels at appropriate intervals during the study. At the termination of the dosing phase and at the termination of the recovery phase, all dogs were subjected to a complete post-mortem examination including gross examination of major organs and histologic examination of an extensive list of tissues. Additional sections of brain were obtained from cerebrum, cerebellus, brain stem and spinal cord and examined histologically to evaluate potential effects on brain histopathology. In addition, these sections were examined with immunohistochemical stains for GFAP for evidence of gliosis and Calbindin for a more comprehensive examination of cerebellar Purkinje cells.

Sprague-Dawley rats = assay: Fourteen day repeat dose toxicity in rats; assay type: in vivo, rat
Procedure: This study was conducted to evaluate the toxicity profile of noribogaine-HCl following oral (gavage) administration to the rat for 14 days following Table 2 below:
Male and female Sprague-Dawley rats, 10/sex/group, were administered 0, 25, 50 or 100 mg/kg noribogaine HCl daily by single oral gavage for 14 days. An additional 5 rats/sex/group in the 0 (control) and 100 mg/kg groups were retained for a 28 day recovery period during which no drug was administered. Six rats/sex/group (3 rats/sex controls) were similarly dosed and sampled on study days 1 and 14 for analysis of noribogaine-HCl concentrations in the blood.

[3] = glucuronide in plasma after 30 mg noribogaine
[4] = glucuronide in plasma after 60 mg noribogaine

For CC[C@H]1C[C@@H]2C[C@H]3c4[nH]c5ccc(OC6OC(C(=O)O)C(O)C(O)C6O)cc5c4CCN(C2)[C@@H]13 (stereo partly drawn) [Noribogaine glucuronide, noribogaine glucuronide], the “time by which noribogaine glucuronide was detected in all subjects” value ([1]; 30 mg and 60 mg noribogaine dose groups, plasma) was ≤ 0.75 h, the “proportion of noribogaine glucuronide Cmax and AUC relative to noribogaine” value ([1]; both dose groups (30 mg, 60 mg)) was 3-4% and the AUC0-216 [1, 3] was 25.7 (9.1) ng · hr/ml. For the same molecule, the “AUC0-∞” value [1, 3] was 25.8 (9.3) ng · hr/ml, the Cmax [1, 3] was 1.8 (0.6) ng/ml and the Tmax [1, 3] was 3.0 (0.6) hr. The t1/2 [1, 3] was 20.6 (4.9) hr, the AUC0-216 [1, 4] was 65.0 (21.5) ng · hr/ml and the “AUC0-∞” value [1, 4] was 67.1 (21.9) ng · hr/ml. The Cmax [1, 4] was 4.1 (1.2) ng/ml, the Tmax [1, 4] was 3.8 (1.2) hr and the t1/2 [1, 4] was 23.1 (3.0) hr. For the same molecule, the “time of peak concentrations after noribogaine dosing” value ([1]; glucuronide, 30 mg and 60 mg dose groups, plasma) was 3 to 4 h and the mean half-life ([1]; plasma noribogaine glucuronide, 30 mg and 60 mg dose groups) was 21 to 23 h.
With CC[C@@H]1C[C@H]2CC3c4[nH]c5ccc(O)cc5c4CCN(C2)C31.Cl [noribogaine HCl] the clinical signs (Sprague-Dawley rat; 100 mg/kg single oral) was “did not show any treatment related signs”, the clinical signs (Sprague-Dawley rat; 300 mg/kg single oral, persisted until Day 2 in 3/5 rats) was “Hypoactivity, vocalization, salivation, stimuli sensitivity, loss of limb function and lying on the cage floor” and the mortality (Sprague-Dawley rat; 800 mg/kg oral gavage (2 x 400 mg/kg 3 h apart), male rats) was “Mortality occurred in all male rats”. For the same molecule, the NOAEL (Sprague-Dawley rat; single oral dose, male rats) was 100 mg/kg, the “adverse effects in the trial” value [2] was “no clinically relevant adverse effects” and the “lacrimal gland changes (target tissue)” value (dogs; 5 mg/kg/day for 14 days) was “slight to moderate atrophy and degeneration of the acinar cells”. For the same molecule, the “lacrimal gland change after recovery” value (dogs; 5 mg/kg/day, 28 days off drug) was “clear evidence of regeneration of this lacrimal gland change”, the “clinical observations, body weights, clinical pathology, ophthalmology, ECG, gross lesions” value (dogs; 0.5, 1.0 and 5.0 mg/kg/day oral for 14 days, dosing or recovery phase) was “No evidence of adverse effect” and the NOAEL (dogs; 14 days oral, based on lacrimal gland changes) was 1 mg/kg/day. For the same molecule, the body weight change (Sprague-Dawley rats; 100 mg/kg, females) was −2.6%, the body weight change (Sprague-Dawley rats; 100 mg/kg, males) was −5.5% and the food consumption change (Sprague-Dawley rats; 100 mg/kg, males and females) was −4.7%. The “effects on mortality, clinical signs, ophthalmoscopy, hematology, coagulation, clinical chemistry, urinalysis, gross necropsy, histopathology” value (Sprague-Dawley rats; 25, 50 or 100 mg/kg daily oral gavage for 14 days) was “no test article-related effects”, the “brain sections stained for GFAP or Calbindin” value (Sprague-Dawley rats; 14 days) was “No treatment-related differences in the brain” and the NOAEL (Sprague-Dawley rats; 14 days oral, highest dose tested) was 100 mg/kg. The liver weight (Sprague-Dawley rats; mid- and high dose groups, considered incidental) was “Minor increases in liver weight”.
